Results on five molecules are retold here after US4918061A, “Method of preventing diseases caused by gram-negative endotoxin in mammals” (priority 1988, dated 1990).

Where only a bound is given, the exact number is not on record here.

The conditions of series [1]: previous work; dependent on being given prior to or very shortly after LPS challenge; cited from earlier work.
Series [2] is described as follows: Biological activity after removal of moieties of lipid X.
In series [3] the test system is sheep. Description: Hemodynamic response and toxicity of lipid X in sheep. Format: in vivo. Particulars: 40 sheep injected with lipid X. How it is done:
The hemodynamic response of sheep to lipid X has been studied (18). Essentially, the conclusions are that: 1) lipid X (40 μg/kg cumulative dose) causes a transient (3-5 min) increase in pulmonary arterial pressure, that may be attributed to prostaglandin release, or stimulated synthesis. […] The only significant symptoms observed after injection of lipid X alone are transient lethargy and shortness of breath (15-30 min), without significant distress or obvious adverse long-term consequences.
A period of transient pulmonary hypertension and slight short ness of breath subsides after 30 minutes. About 30 sheep were examined by Burhop with regard to lipid X toxicity.

Series [4] relates to C57BL/10 mice. Put plainly: Toxicity of lipid X in mice. Type of series: in vivo, mouse. The procedure: To test for the toxicity of lipid X in mice, C57BL/10 mice were challenged with 750, 2000 or 5000 μg of lipid X intraperitoneally (12 mice) or with 750, 1500 or 3000 μg intravenously (7 mice).
In series [5] the test system is sheep. Particulars: cited from earlier work.
A further series concerns B cell. Particulars: cited from earlier work.
Series [6] has as its system C57BL/10 mice. Put plainly: Protection of mice by lipid X against lethal endotoxemia. Format: in vivo, mouse. How it is done:
FIG. 4. […] Controls receiving no lipid X are shown at the left of each panel. The number of mice per group is either three or four, and is the sum of the dead and the living. The number of survivors is shown at the top of the panel. Each point represents the death of one mouse. When all individuals died the mean time of death is shown as a horizontal bar. […] Doses of lipid X were administered in 0.1 ml of physiological saline that had been titrated to pH 8 with Tris to dissolve the lipid.
(§1) Experimental Animals. Eight week old mice (strain C57BL/10) were purchased from Jackson Laboratories, Bar Harbor, ME. Mixed bred sheep weighing 30-70 kg were obtained from the University of Wisconsin Experimental Farms. Sheep were prepared as follows: at least 24 hours before each experiment catheters were percutaneously placed in the pulmonary artery. Any other catheterizations that were required for infusion were done at this time. All studies were performed on awake, unrestrained sheep placed in portable stanchions with food and water ad libitum. Electronically calculated pulmonary artery pressures as well as heart rates were recorded at various intervals on a Gilson polygraph (Gilson Instruments, Middleton, WI). To ensure a stable baseline prior to the injection of test compounds, approximately 1 hour of baseline measurements were recorded.
Mice were allowed to rest for at least 7 days following their arrival and were sexually segregated and housed at 5 per cage with food and water ad libitum. […] No more than 0.1 ml of fluid was injected at a time. Just prior to injection, the mice were lightly anesthetized with ether. Following the injection, mice were observed every 0.5-6 hours and the time of death was recorded.
The lethal dose of E. coli endotoxin was determined both for the intravenous and of the intraperitoneal challenge.
Mice were given 750 μg of lipid X from 24 hours prior to 6 hours after endotoxin challenge with 1-2 LD100 doses.

A further series has as its system macrophages. The conditions noted are these: cited from earlier work.
In series [7] the test system is experimental tumors in guinea pigs. Particulars: cited from earlier work.
Series [8] relates to sheep. Description: Protection of sheep by lipid X against lethal effects of intravenous lipopolysaccharide. Type of series: in vivo. The procedure: Preparation of E. coli lipid X. The 2,3-diacylglucosamine 1-phosphate (E. coli lipid X) was isolated from E. coli strain MN7 (ATCC #39328) as described previously (9). […] Stock solutions (1-10 mg/ml) are usually prepared in aqueous 1 mM EDTA titrated to pH 8 with Tris-free base. […] In experiments involving the use of mice, solid lipid X was first dissolved in 0.9% saline (instead of water) and titrated with Tris-free base to pH 8 in the same manner.
(§2) Stock solutions of 5 mg/ml were prepared in sterile 0.9% saline.
as §1

Series [9] deals with macrophage protein kinase C. The conditions noted are these: cited from earlier work.
Series [10] is described as follows: Solution behaviour of lipid X. Format: physicochemical. The procedure: (§3) Preparation of E. coli lipid X. The 2,3-diacylglucosamine 1-phosphate (E. coli lipid X) was isolated from E. coli strain MN7 (ATCC #39328) as described previously (9). Lipid X obtained in this manner is a solid white powder. Stock solutions (1-10 mg/ml) are usually prepared in aqueous 1 mM EDTA titrated to pH 8 with Tris-free base. Other monovalent counter ions, such as (NH4)^+, Na^+, K^+, etc., may also be used, but divalent cations such as Mg^++ and Ca^++ cause the lipid to precipitate. […] In experiments involving the use of mice, solid lipid X was first dissolved in 0.9% saline (instead of water) and titrated with Tris-free base to pH 8 in the same manner.

Series [11] can be described thus: Storage stability of lipid X stock solutions. Format: physicochemical. The conditions noted are these: stock solutions 5-10 mg/ml stored frozen at -20° C. The procedure:
as §3

The subject of series [12] is sheep. Description: Lethality and clinical toxicity of intravenous lipopolysaccharide in sheep. Particulars: usually the result of disseminated intravascular coagulopathy. The procedure:
as §2, §1

Setting [13] is: lipid X by itself 40-1000 μg/kg.
Where [14] appears, read: sheep, pretreatment with lipid X.

On to `C=CCN1CC[C@]23c4c5ccc(O)c4O[C@H]2C(=O)CC[C@@]3(O)[C@H]1C5` [naloxone], for which the “prevention of the complications of lipopolysaccharide injection” value in series [1] is “limited prevention of the complications”.
Consider `CCCCCCCCCCCC(O)CC(=O)N[C@H]1C(O)O[C@H](CO)[C@@H](O)[C@@H]1OC(=O)CC(O)CCCCCCCCCCC` (stereo partly drawn) [dephospho-X], for which the “biological activity after removal of the phosphate moiety” value in [2] (mild acid treatment of lipid X, may be due to inherent solubility of dephospho-X) is “reduces biological activity”.
With `CCCCCCCCCCCC(O)CC(=O)N[C@H]1[C@@H](OP(=O)(O)O)O[C@H](CO)[C@@H](O)[C@@H]1O` (stereo partly drawn) [N-monoacyl glucosamine 1-phosphate], in series [2] (mild alkali treatment of lipid X), the “biological activity after removal of the ester linked β-hydroxymyristoyl moiety” value is on record as “biologically inert”.
For the molecule `CCCCCCCCCCCC(O)CC(=O)N[C@H]1[C@@H](OP(=O)(O)O)O[C@H](CO)[C@@H](O)[C@@H]1OC(=O)CC(O)CCCCCCCCCCC` (stereo partly drawn) [lipid X, 2,3-diacylglucosamine 1-phosphate], the “adverse complications of lipid X administration” value with sheep [3] is “no serious adverse complications”. Moreover, in the series with C57BL/10 mice [4] (750, 2000 or 5000 μg intraperitoneally (12 mice) or 750, 1500 or 3000 μg intravenously (7 mice)), the “survival after lipid X challenge” value is “All these mice lived”. Also, the “toxicity of lipid X” value with C57BL/10 mice [4] (mice) is given as “nontoxic in mice”. For the same molecule, in the series with sheep [5] (lipid X 40 μg/kg cumulative dose), the “duration of transient increase in pulmonary arterial pressure” value was 3 to 5 min. Moreover, in the series on sheep [5] (lipid X 500-1000 μg/kg intravenously), the “duration of pulmonary hypertension” value is 5 to 10 min. Further, the “duration of transient lethargy and shortness of breath” value in the series with sheep [5] (lipid X alone) is 15 to 30 min. In the series with sheep [5] (setting [13]), the “marked illness or fever” value is “does not create marked illness or fever”. For the same molecule, the “time for transient pulmonary hypertension and slight shortness of breath to subside” value in the series with sheep [5] (setting [13]) was 30 min. Also, the “increased permeability of the pulmonary circulation” value in the series with sheep [5] (lipid X, compared to endotoxin) was “to a very mild degree compared to endotoxin”. Moreover, the “delay between injection and increase of pulmonary arterial pressure” value in the series with sheep [5] (lipid X) is “no delay”. Further, the life-threatening pulmonary edema entry with sheep [5] (lipid X) is “does not develop”. Also, the terminal endotoxemia result with sheep [5] (very high doses of lipid X) was “fails to cause terminal endotoxemia”. The B cell mitogen entry in the series with B cell is “B cell mitogen”. In the series on C57BL/10 mice [6] (750 μg lipid X intravenously, 250 or 500 μg endotoxin intravenously), the “last death after challenge” value is given as not above 5 days. Further, the “mortality of group receiving lipid X shortly after endotoxin challenge” value with C57BL/10 mice [6] (both challenge doses, versus the group on either side) was “higher mortality than the group on either side”. For the same molecule, in the series with C57BL/10 mice [6] (compared with classical tolerance, which does not appear for many days), the “onset and duration of protection against lipopolysaccharide” value was “immediate and wears off after several hours”. Moreover, the survival of mice with C57BL/10 mice [6] (lipid X (750 μg intravenously) from 1 hour prior to through 4 hours post LPS challenge, 250 μg endotoxin) is given as 81%; in the series on C57BL/10 mice [6] (lipid X from 6 hours prior to endotoxin challenge through 1 hour after LPS challenge, intravenous, printed 500 μg lipid X) it was “Forty-one”. Further, the “prolongation of time to death” value in the series with C57BL/10 mice [6] (lipid X intraperitoneally 2 hours before 1500 μg endotoxin (3 times LD100) intraperitoneally, data not shown) was “four”. Besides, the time to death in the series on C57BL/10 mice [6] (lipid X intraperitoneally 2 hours before 1500 μg endotoxin, about 20 hours without lipid X, data not shown) was approximately 80 h. For the same molecule, the “resistance to the lethal effects of gram-negative endotoxin” value is “immediately resistant to the lethal effects” in the series with C57BL/10 mice [6] (mice, pretreatment with lipid X) and “immediately resistant to the lethal effects” in the series with sheep [8] (setting [14]). Moreover, the “prevention of lethal endotoxicity when given after lipopolysaccharide” value in the series with C57BL/10 mice [6] (mouse, lipid X given 4 hours after lipopolysaccharide) was “appears to prevent lethal endotoxicity even when given 4 hours after lipopolysaccharide”. Besides, the “macrophage activation with release of prostaglandin E2” value with macrophages was “capable of activating macrophages with release of protaglandin E2”. In addition, in [7], the “regression of experimental tumors” value is “capable of inducing regression of experimental tumors in guinea pigs”. For the same molecule, the Survivors was 1/2 in the series with sheep [8] (lipid X 50 μg/kg 1 hour prior to endotoxin, lipopolysaccharide 20 μg/kg); 3/3 in the series with sheep [8] (lipid X 100 μg/kg 15 min. prior to endotoxin, lipopolysaccharide 10 μg/kg); 4/4 in the series with sheep [8] (lipid X 100 μg/kg 1 hour prior to endotoxin, lipopolysaccharide 20 μg/kg); 3/3 in the series with sheep [8] (lipid X 200 μg/kg 1 hour prior to endotoxin, lipopolysaccharide 20 μg/kg). For the same molecule, the “survival of subsequent LPS challenge” value with sheep [8] (sheep receiving 100-200 μg/kg lipid X during the pretreatment period) is reported as “all the sheep receiving 100-200 μg/kg of lipid X during the pretreatment period survived”. In addition, in the series on sheep [8] (sheep, on a weight basis), the “excess of lipid X over LPS required to ensure survival” value was 5-10 fold. Also, the “effect on pulmonary hypertension or fever induced by LPS” value in the series with sheep [8] (setting [14]) is reported as “does not prevent pulmonary hypertension or fever”. The “effect on serious clinical symptoms (shortness of breath, weakness, diarrhea, etc.)” value with sheep [8] (setting [14]) is listed as “alleviates some of the serious clinical symptoms”. The “activation of macrophage protein kinase C” value in series [9] is “can activate macrophage protein kinase C”. In series [10] (Mg^++ and Ca^++), the “behaviour with divalent cations” value is listed as “precipitate”. Moreover, in series [10] (pH 8, stock solutions 1-10 mg/ml), the “solution behaviour in Tris-EDTA” value is reported as “forms a clear viscous solution”. In addition, the solubility in water result in series [10] (water) is on record as “limited solubility”. The storage stability result in series [11] is given as “many months without evidence of significant deterioration”.
Take lipid A: in the series with sheep [12], the “time of death after injection (occasional)” value is recorded as 1-2 weeks.
